This passage reports IC50 results from patent US20250206722A1, “SMALL MOLECULE INHIBITORS OF TEA DOMAIN FAMILY MEMBERS” (The Scripps Research Institute, priority 2022, published 2025).

The term IC50 denotes the concentration that inhibits the measured activity by half. The low end stands for higher potency, the high end for lower potency.

Bounds are passed on as bounds.

The test system of one test is NCI-H226 cells. Briefly: NCI-H226 proliferation assay (in house). It counts as cell-based. The following applies: Homo sapiens, 120 h, 5 days, Cell TiterGlo, 20-point 1:2 dilution from 20 μM. The protocol:
NCI-H226 Proliferation Assay
NCI-H226 cells were obtained from American Type Culture Collection (ATCC, CRL-5826) and cultured in RPMI 1640 with L-glutamine (Corning, 10-040-CV) supplemented with 10% fetal bovine serum (Gibco, 10438-026) and 1% penicillin-streptomycin (Gibco, 15070063). Cells were trypsinized, resuspended in growth medium, and diluted to a concentrated of 10,000 cells/mL. 500 cells, 50 μL of cell suspension, per well were then plated in a white 384-well plate (Corning) and incubated at 37° C., 5% CO2. After 24 hours incubation, 100 nL of test compounds in DMSO, 20-point 1:2 dilution starting from 20 μM (final concentration) in triplicate, were transferred to each well using an Agilent Bravo instrument outfitted with a pintool head. Cells were incubated at 37° C., 5% CO2 for 5 days followed by the addition of 30 μL of Cell TiterGlo (Promega; diluted 1:6 in water) to each well and luminescence values recorded using an EnVision plate reader. […]
In general terms: Cellular ATP, detected with luciferase, serves as a proxy for viable cell number.

Test [1] deals with transcriptional activity of TEADs. In words: TEAD reporter assay (MCF7 TEAD-LUC reporter cells). The following applies: Homo sapiens, 24 hours, BrightGlo luminescence. It counts as cell-based. The protocol: MCF7 TEAD-LUC reporter cells were obtained from BPS Bioscience, Inc. and cultured in DMEM medium (Corning, 10-013-CV) supplemented with 10% fetal bovine serum (Gibco, 10438-026), 1% penicillin-streptomycin (Gibco, 15070063), 1% non-essential amino acids (Gibco, 15070063), and 10 μg/mL insulin (Sigma, 10516). Cells were trypsinized, resuspended in growth medium, and diluted to a concentrated of 100,000 cells/mL. 5,000 cells, 50 μL of cell suspension, per well were then plated in a white 384-well plate (Corning) and incubated at 37° C., 5% CO2. After 24 hours incubation, 100 nL of test compounds in DMSO, 20-point 1:2 dilution starting from 20 μM (final concentration) in triplicate, were transferred to each well using an Agilent Bravo instrument outfitted with a pintool head. Cells were incubated at 37° C., 5% CO2 for 24 hours followed by the addition of 30 μL of BrightGlo (Promega; diluted 1:3 in water) to each well and luminescence values recorded using an EnVision plate reader.
The in vitro assay results of the compounds in the present invention were included in Table 1. The compounds described herein, inhibited the transcriptional activity of TEADs, as assessed by decreased luminance from a TEAD reporter cell line (MCF7 TEAD-LUC) in response to compound treatment.
Background: Reporter assays use an easily measured gene product as a stand-in for the process of interest.

Regarding `C=C(C(=O)N1CCC(c2nccnc2Oc2ccc(C(F)(F)F)nc2)CC1)C(F)(F)F` [Example 81, 2-(trifluoromethyl)-1-(4-(3-((6-(trifluoromethyl)pyridin-3-yl)oxy)pyrazin-2-yl)piperidin-1-yl)prop-2-en-1-one], the IC50 is 2.97 µM in the test with NCI-H226 cells and 9.5 nM in test [1].
For `C=C(CN1CCC(c2nccnc2Oc2ccc(C(F)(F)F)nc2)CC1)C(=O)O` [Example 82, 2-((4-(3-((6-(trifluoromethyl)pyridin-3-yl)oxy)pyrazin-2-yl)piperidin-1-yl)methyl)acrylic acid] the same measures were > 20 µM and > 20000 nM.
For `C=CC(=O)N1CC=C(c2nccnc2Oc2ccc(C(F)(F)F)nc2)CC1` [Example 84, 1-(4-(3-((6-(trifluoromethyl)pyridin-3-yl)oxy)pyrazin-2-yl)-3,6-dihydropyridin-1(2H)-yl)prop-2-en-1-one] the same measures were 0.0173 µM and 1.4 nM.
The matching figures for `C=C(CN1CC(c2nccnc2Oc2ccc(C(F)(F)F)nc2)C1)C(=O)O` [Example 86, 2-((3-(3-((6-(trifluoromethyl)pyridin-3-yl)oxy)pyrazin-2-yl)azetidin-1-yl)methyl)acrylic acid]: 3.01 µM and 31000 nM.
For `C=CC(=O)N1CCN(c2nccnc2C(=O)c2ccc(C(F)(F)F)cc2)CC1` [Example 95, 1-(4-(3-(4-(trifluoromethyl)benzoyl)pyrazin-2-yl)piperazin-1-yl)prop-2-en-1-one], the concentration for half-maximal inhibition (IC50) with NCI-H226 cells came out at 0.012 µM; in test [1], 1.3 nM.
In the case of `C=CC(=O)N1CCN(c2nccnc2C(O)c2ccc(C(F)(F)F)cc2)CC1` (stereo not drawn) [Example 97, 1-(4-(3-(hydroxy(4-(trifluoromethyl)phenyl)methyl)pyrazin-2-yl)piperazin-1-yl)prop-2-en-1-one], the IC50 in the test on NCI-H226 cells was 0.019 µM; in test [1], 3 nM.
For `C=CC(=O)N1CCN(c2nccnc2Cc2ccc(C(F)(F)F)cc2)CC1` [Example 98, 1-(4-(3-(4-(trifluoromethyl)benzyl)pyrazin-2-yl)piperazin-1-yl)prop-2-en-1-one] the same measures were 0.012 µM and 0.9 nM.
The matching figures for `C=CC(=O)N1CCN(c2nccnc2C(=O)NC2CCC2)CC1` [Example 99, 3-(4-acryloylpiperazin-1-yl)-N-cyclobutylpyrazine-2-carboxamide]: 2.08 µM and 142 nM.
For `C=CC(=O)N1CCN(c2nccnc2C(=O)NC2CC(F)(F)C2)CC1` [Example 100, 3-(4-acryloylpiperazin-1-yl)-N-(3,3-difluorocyclobutyl)pyrazine-2-carboxamide] the same measures were 1.18 µM and 74 nM.
In the case of `C=CC(=O)N1CCN(c2nccnc2C(=O)N2CC3(CC(C(F)(F)F)C3)C2)CC1` [Example 101, 1-(4-(3-(6-(trifluoromethyl)-2-azaspiro[3.3]heptane-2-carbonyl)pyrazin-2-yl)piperazin-1-yl)prop-2-en-1-one], the half-maximal inhibitory concentration (IC50) in the test on NCI-H226 cells was found to be 3.76 µM; in test [1], 13.4 nM.
For `C=CC(=O)N1CCN(c2nccnc2C(=O)NC2CCCC2)CC1` [Example 102, 3-(4-acryloylpiperazin-1-yl)-N-cyclopentylpyrazine-2-carboxamide] the same measures were 1.6 µM and 39 nM.
Turning to `C=CC(=O)N1CCN(c2nccnc2C(=O)N2CCC(C(F)(F)F)CC2)CC1` [Example 103, 1-(4-(3-(4-(trifluoromethyl)piperidine-1-carbonyl)pyrazin-2-yl)piperazin-1-yl)prop-2-en-1-one], the IC50 was > 20 µM with NCI-H226 cells and 166 nM in test [1].
For `C=CC(=O)N1CCN(c2nccnc2C(=O)N2CCC(F)(F)CC2)CC1` [Example 104, 1-(4-(3-(4,4-difluoropiperidine-1-carbonyl)pyrazin-2-yl)piperazin-1-yl)prop-2-en-1-one] the same measures were 2.74 µM and 2220 nM.
For `C=CC(=O)N1CCN(c2ncc(O)nc2Nc2ccc(C(F)(F)F)cc2)CC1` [Example 111, 1-(4-(5-hydroxy-3-((4-(trifluoromethyl)phenyl)amino)pyrazin-2-yl)piperazin-1-yl)prop-2-en-1-one] the same measures were 5.64 µM and 239 nM.
As to `C=C(F)C(=O)N1CCN(c2nc(C)c(C)nc2Nc2ccc(C(F)(F)F)nc2)CC1` [Example 114, 1-(4-(5,6-dimethyl-3-((6-(trifluoromethyl)pyridin-3-yl)amino)pyrazin-2-yl)piperazin-1-yl)-2-fluoroprop-2-en-1-one], the IC50 was 0.072 µM in the test on NCI-H226 cells and 4.4 nM in test [1].
The matching figures for `C=CC(=O)N1CCN(c2cnncc2Nc2ccc(C(F)(F)F)cc2)CC1` [Example 122, 1-(4-(5-((4-(trifluoromethyl)phenyl)amino)pyridazin-4-yl)piperazin-1-yl)prop-2-en-1-one]: > 10 µM and 6.8 nM.
The matching figures for `C=C(F)C(=O)N1CC=C(c2cnc(C)nc2Oc2ccc(C(F)(F)F)nc2)CC1` [Example 130, 2-fluoro-1-(4-(2-methyl-4-((6-(trifluoromethyl)pyridin-3-yl)oxy)pyrimidin-5-yl)-3,6-dihydropyridin-1(2H)-yl)prop-2-en-1-one]: 1.33 µM and 1.1 nM.
For `C=CC(=O)N1CCC(c2cnc(C)nc2Oc2ccc(C(F)(F)F)nc2)CC1` [Example 131, 1-(4-(2-methyl-4-((6-(trifluoromethyl)pyridin-3-yl)oxy)pyrimidin-5-yl)piperidin-1-yl)prop-2-en-1-one], the IC50 in the test with NCI-H226 cells came to 2.25 µM; in test [1], 598 nM.
With `C=C(F)C(=O)N1CCC(c2cnc(C)nc2Oc2ccc(C(F)(F)F)nc2)CC1` [Example 132, 2-fluoro-1-(4-(2-methyl-4-((6-(trifluoromethyl)pyridin-3-yl)oxy)pyrimidin-5-yl)piperidin-1-yl)prop-2-en-1-one], the half-maximal inhibitory concentration (IC50) with NCI-H226 cells was determined as 4.31 µM; in test [1], 451 nM.
Take `C=CC(=O)N1CCN(c2nc(OC)ncc2Nc2ccc(C(F)(F)F)cc2)CC1` [Example 133, 1-(4-(2-methoxy-5-((4-(trifluoromethyl)phenyl)amino)pyrimidin-4-yl)piperazin-1-yl)prop-2-en-1-one]: the IC50 in the test with NCI-H226 cells is 0.722 µM; in test [1], 16.5 nM.
The matching figures for `C=C(F)C(=O)N1CCN(c2ncccc2Nc2ccc(C(F)(F)F)nc2)CC1` [Example 135, 2-fluoro-1-(4-(3-((6-(trifluoromethyl)pyridin-3-yl)amino)pyridin-2-yl)piperazin-1-yl)prop-2-en-1-one]: 1.67 µM and 410 nM.
The matching figures for `C=CC(=O)N1CC=C(c2ncccc2Oc2ccc(C(F)(F)F)nc2)CC1` [Example 136, 1-(3-((6-(trifluoromethyl)pyridin-3-yl)oxy)-3′,6′-dihydro-[2,4′-bipyridin]-1′(2′H)-yl)prop-2-en-1-one]: 0.341 µM and 66 nM.
For `C=C(F)C(=O)N1CC=C(c2ncccc2Oc2ccc(C(F)(F)F)nc2)CC1` [Example 137, 2-fluoro-1-(3-((6-(trifluoromethyl)pyridin-3-yl)oxy)-3′,6′-dihydro-[2,4′-bipyridin]-1′(2′H)-yl)prop-2-en-1-one] the same measures were 0.243 µM and 22 nM.
With `C=C(F)C(=O)N1CCC(c2ncccc2Oc2ccc(C(F)(F)F)nc2)CC1` [Example 139, 2-fluoro-1-(4-(3-((6-(trifluoromethyl)pyridin-3-yl)oxy)pyridin-2-yl)piperidin-1-yl)prop-2-en-1-one], the 50% inhibitory concentration (IC50) turned out to be 7.03 µM with NCI-H226 cells and 3240 nM in test [1].
`C=CC(=O)N1CCN(c2ncccc2C(=O)c2ccc(C(F)(F)F)cn2)CC1` [Example 140, 1-(4-(3-(5-(trifluoromethyl)picolinoyl)pyridin-2-yl)piperazin-1-yl)prop-2-en-1-one]: the IC50 in the test on NCI-H226 cells turned out to be 11.1 µM; in test [1], 8.6 nM.
Regarding `C=CC(=O)N1CCN(c2ncccc2C(=O)c2ccc(C(F)(F)F)nc2)CC1` [Example 141, 1-(4-(3-(6-(trifluoromethyl)nicotinoyl)pyridin-2-yl)piperazin-1-yl)prop-2-en-1-one], the IC50 was determined as 0.5 µM in the test on NCI-H226 cells and 7.5 nM in test [1].
Turning to `C=CC(=O)N1CCN(c2ncccc2C(O)c2ccc(C(F)(F)F)nc2)CC1` (stereo not drawn) [Example 142, 1-(4-(3-(hydroxy(6-(trifluoromethyl)pyridin-3-yl)methyl)pyridin-2-yl)piperazin-1-yl)prop-2-en-1-one], the 50% inhibitory concentration (IC50) was determined as 7.28 µM in the test with NCI-H226 cells and 2.3 nM in test [1].
